Measurements taken from publication PMC5761851, “Application of a phenotypic drug discovery strategy to identify biological and chemical starting points for inhibition of TSLP production in lung epithelial cells” (PLoS ONE, 2018).
Values joined by “and” are separate entries in the source; they are usually repeats but may differ in a detail not shown here. Identical values can stand only once.

Assays:
Format in all cases: cell-based, human
[1] = test system: TSLP production in NHBE cells; assay: TSLP HTRF assay (TSLP production in poly I:C / IL-4 stimulated NHBE cells); conditions: 4 μM; NHBE donor #1; average ± SD
Protocol: For dose response curves determinations, stocks of test compounds at a concentration of 1.33x10^-3 M in DMSO were sequentially diluted at 1:4 dilution steps before further 1/50 dilution in BEBM medium containing 1x ITS and 0.1% BSA. For the highest 4 μM concentration test compounds were resuspended in DMSO at a concentration of 2.5x10^-3 M and diluted 1/25 in BEBM medium containing 1x ITS and 0.1% BSA before adding 1 μl to the wells containing the cells.
All subsequent steps were automated using a Sciclone® G3 workstation (Perkin Elmer) with a Twister™ II robot (Perkin Elmer). […] 1 μl of test compound solution prepared at 25x concentration was added to the wells containing NHBE cells. The plates were then incubated during 90 minutes at 37°C, 5% CO2, 90% humidity before adding poly I:C (Invivogen HMW Tirl-pic-5) and human IL-4 (Peprotech 200–04) stimulus in 4 μl of BEBM medium containing 1x ITS, 0.1% BSA and 0.1% DMSO using a Multidrop™. […] Cells were then incubated for 24h in the presence of test compounds and stimulus at 37°C, 5% CO2 and 90% humidity conditions. After the 24h incubation period the plates were transferred to a CyBi®-Well platform (CyBio AG) to collect 10 μl of the supernatants which were transferred to a new plate. TSLP levels in the supernatant were determined using a homogeneous Time-Resolved Fluorescence (HTRF) assay custom developed by Cisbio. The assay was based in the use of a donor dye (europium cryptate) coupled to a monoclonal anti-TSLP antibody and an acceptor dye (d2) coupled to a second polyclonal anti-TSLP antibody. […] 10 μl of the resulting solution was then used to determine TSLP levels as described above.
The standard curve was built with eight points prepared in ITS/BSA in BEBM medium without supplements, starting at 700 pg/ml and diluted 1:2, with medium alone being zero TSLP. Fitting model corresponded to equation 100 of Excel fit software. Data from the primary phenotypic screen was visualized using Vortex (Dotmatics). […] For compound selection the maximum inhibition of the two individual duplicate values was taken into account. Dose response confirmation was performed at single point in the 2 donors tested. 9 point curves were run starting at 4 μM concentration by doing serial 1:4 dilutions in cells derived from both donors.

[2] = test system: TSLP mRNA levels in NHBE cells; assay: TSLP mRNA real-time PCR (qPCR) in NHBE cells; design: TSLP mRNA upregulation (% versus control) / % Inhibition of mRNA: dose or concentration left out as unconfirmed
[3] = test system: TSLP production in NHBE cells; assay: TSLP HTRF assay (TSLP production in poly I:C / IL-4 stimulated NHBE cells); conditions: individual values

Question: With `CC(C)N(C(=O)CN1N=C(c2ccccc2)Cn2c(cc3ccccc32)C1=O)C(C)C` [compound 1] as the compound, how does the “TSLP protein upregulation (% versus control at 4 µM)” value [1] read?
Answer: The value was 170 ± 62%.

Question: And the “TSLP mRNA upregulation (% versus control at 4 μM)” value ([2]; 4 μM, NHBE donor #1, average ± SD)?
Answer: Its value is 452 ± 103%.

Question: What about the “TSLP mRNA upregulation (% versus control)” value ([2]; individual values) of the same compound?
Answer: The value was 525.82% and 378.87%.

Question: What about the “TSLP protein upregulation (% versus control at 4 µM)” value [3] of the same compound?
Answer: Its value is 138.531% and 75.145% and 206.844% and 140.02% and 231.867% and 228.515%.
